{
  "source": "patent US7371766B2",
  "about": "“Curcumin analogs with anti-tumor and anti-angiogenic properties” (Emory University, priority 1999, dated 2008)",
  "key": {"NCI-H460": {"system": "NCI-H460", "details": "read-out: Median Growth Inhibitory Concentration (GI50); NCI-H460, Non-Small Cell Lung Cancer; 48 hours"}, "SK-MEL-5": {"system": "SK-MEL-5", "details": "read-out: Median Growth Inhibitory Concentration (GI50); SK-MEL-5, Melanoma; 48 hours"}, "CCRF-CEM": {"system": "CCRF-CEM", "details": "read-out: Median Growth Inhibitory Concentration (GI50), Leukemia, 48 hours"}, "NCI-H23": {"system": "NCI-H23", "details": "read-out: Median Growth Inhibitory Concentration (GI50); NCI-H23, Non-Small Cell Lung Cancer; 48 hours"}, "HT29": {"system": "HT29", "details": "read-out: Median Growth Inhibitory Concentration (GI50); HT29, Colon Cancer; 48 hours"}, "NCI-H226": {"system": "NCI-H226", "details": "read-out: Median Growth Inhibitory Concentration (GI50); NCI-H226, Non-Small Cell Lung Cancer; 48 hours"}, "DU-145": {"system": "DU-145", "details": "read-out: Median Growth Inhibitory Concentration (GI50); DU-145, Prostate Cancer; 48 hours"}, "OVCAR-8": {"system": "OVCAR-8", "details": "read-out: Median Growth Inhibitory Concentration (GI50); OVCAR-8, Ovarian Cancer; 48 hours"}, "IGROV1": {"system": "IGROV1", "details": "read-out: Median Growth Inhibitory Concentration (GI50); IGROV1, Ovarian Cancer; 48 hours"}, "HCT-116": {"system": "HCT-116", "details": "read-out: Median Growth Inhibitory Concentration (GI50); HCT-116, Colon Cancer; 48 hours"}, "RXF 393": {"system": "RXF 393", "details": "read-out: Median Growth Inhibitory Concentration (GI50); RXF 393, Renal Cancer; 48 hours"}, "SK-OV-3": {"system": "SK-OV-3", "details": "read-out: Median Growth Inhibitory Concentration (GI50); SK-OV-3, Ovarian Cancer; 48 hours"}, "TK-10": {"system": "TK-10", "details": "read-out: Median Growth Inhibitory Concentration (GI50); TK-10, Renal Cancer; 48 hours"}, "786-0": {"system": "786-0", "details": "read-out: Median Growth Inhibitory Concentration (GI50); 786-0, Renal Cancer; 48 hours"}, "OVCAR-5": {"system": "OVCAR-5", "details": "read-out: Median Growth Inhibitory Concentration (GI50); OVCAR-5, Ovarian Cancer; 48 hours"}, "ACHN": {"system": "ACHN", "details": "read-out: Median Growth Inhibitory Concentration (GI50), Renal Cancer, 48 hours"}, "HL-60 (TB)": {"system": "HL-60 (TB)", "details": "read-out: Median Growth Inhibitory Concentration (GI50), Leukemia, 48 hours"}, "HS 578T": {"system": "HS 578T", "details": "read-out: Median Growth Inhibitory Concentration (GI50), Breast Cancer, 48 hours"}, "M14": {"system": "M14", "details": "read-out: Median Growth Inhibitory Concentration (GI50); M14, Melanoma; 48 hours"}, "SF-539": {"system": "SF-539", "details": "read-out: Median Growth Inhibitory Concentration (GI50); SF-539, CNS Cancer; 48 hours"}, "MALME-3M": {"system": "MALME-3M", "details": "read-out: Median Growth Inhibitory Concentration (GI50), Melanoma, 48 hours"}, "BT-549": {"system": "BT-549", "details": "read-out: Median Growth Inhibitory Concentration (GI50); BT-549, Breast Cancer; 48 hours"}, "SW-620": {"system": "SW-620", "details": "read-out: Median Growth Inhibitory Concentration (GI50); SW-620, Colon Cancer; 48 hours"}, "COLO 205": {"system": "COLO 205", "details": "read-out: Median Growth Inhibitory Concentration (GI50); COLO 205, Colon Cancer; 48 hours"}, "LOX IMVI": {"system": "LOX IMVI", "details": "read-out: Median Growth Inhibitory Concentration (GI50), Melanoma, 48 hours"}, "HCT-15": {"system": "HCT-15", "details": "read-out: Median Growth Inhibitory Concentration (GI50); HCT-15, Colon Cancer; 48 hours"}, "MOLT-4": {"system": "MOLT-4", "details": "read-out: Median Growth Inhibitory Concentration (GI50); MOLT-4, Leukemia; 48 hours"}, "SNB-75": {"system": "SNB-75", "details": "read-out: Median Growth Inhibitory Concentration (GI50); SNB-75, CNS Cancer; 48 hours"}, "KM12": {"system": "KM12", "details": "read-out: Median Growth Inhibitory Concentration (GI50); KM12, Colon Cancer; 48 hours"}, "RPMI-8226": {"system": "RPMI-8226", "details": "read-out: Median Growth Inhibitory Concentration (GI50); RPMI-8226, Leukemia; 48 hours"}},
  "data": [
    {"smiles": "C(=C\\c1ccccc1)/S/C=C/c1ccccc1", "note": "[EF15]", "values": [
      {"measurement": "GI50", "setting": "NCI-H460", "result": "> 100", "unit": "µM"},
      {"measurement": "GI50", "setting": "SK-MEL-5", "result": 53.9, "unit": "µM"},
      {"measurement": "GI50", "setting": "CCRF-CEM", "result": 41.5, "unit": "µM"},
      {"measurement": "GI50", "setting": "NCI-H23", "result": "> 100", "unit": "µM"},
      {"measurement": "GI50", "setting": "HT29", "result": 46.1, "unit": "µM"},
      {"measurement": "GI50", "setting": "NCI-H226", "result": "> 100", "unit": "µM"},
      {"measurement": "GI50", "setting": "DU-145", "result": "> 100", "unit": "µM"},
      {"measurement": "GI50", "setting": "OVCAR-8", "result": "> 100", "unit": "µM"},
      {"measurement": "GI50", "setting": "IGROV1", "result": "> 100", "unit": "µM"},
      {"measurement": "GI50", "setting": "HCT-116", "result": "> 100", "unit": "µM"},
      {"measurement": "GI50", "setting": "RXF 393", "result": 23.5, "unit": "µM"},
      {"measurement": "GI50", "setting": "SK-OV-3", "result": "> 100", "unit": "µM"},
      {"measurement": "GI50", "setting": "TK-10", "result": "> 100", "unit": "µM"},
      {"measurement": "GI50", "setting": "786-0", "result": "> 100", "unit": "µM"},
      {"measurement": "GI50", "setting": "OVCAR-5", "result": "> 100", "unit": "µM"},
      {"measurement": "GI50", "setting": "ACHN", "result": "> 100", "unit": "µM"},
      {"measurement": "GI50", "setting": "HL-60 (TB)", "result": 49.9, "unit": "µM"},
      {"measurement": "GI50", "setting": "HS 578T", "result": "> 100", "unit": "µM"},
      {"measurement": "GI50", "setting": "M14", "result": "> 100", "unit": "µM"},
      {"measurement": "GI50", "setting": "SF-539", "result": "> 100", "unit": "µM"},
      {"measurement": "GI50", "setting": "MALME-3M", "result": "> 100", "unit": "µM"},
      {"measurement": "GI50", "setting": "BT-549", "result": "> 100", "unit": "µM"},
      {"measurement": "GI50", "setting": "SW-620", "result": 79.8, "unit": "µM"},
      {"measurement": "GI50", "setting": "COLO 205", "result": "> 100", "unit": "µM"},
      {"measurement": "GI50", "setting": "LOX IMVI", "result": "> 100", "unit": "µM"},
      {"measurement": "GI50", "setting": "HCT-15", "result": 49.1, "unit": "µM"},
      {"measurement": "GI50", "setting": "MOLT-4", "result": "> 100", "unit": "µM"},
      {"measurement": "GI50", "setting": "SNB-75", "result": 98.8, "unit": "µM"},
      {"measurement": "GI50", "setting": "KM12", "result": 55.7, "unit": "µM"},
      {"measurement": "GI50", "setting": "RPMI-8226", "result": 49.8, "unit": "µM"}
    ]}
  ]
}
